Results as given in patent US12697366B2, “Thermogenic compositions and methods” (Ohio State Innovation Foundation, priority 2016, dated 2026).

System: omental iAb preadipocytes
Assay: FD-glucose uptake in human omental iAb preadipocytes
Format: cell-based
Conditions: for glucose uptake in preadipocytes from lean insulin-sensitive patients: EREG vs insulin; for glucose uptake in preadipocytes from an insulin resistant patient: different doses of EREG, insulin 10 μg/ml
Protocol: FIGS. 16A to 16M show EREG improves glucose uptake in ob/ob mice and in mouse and human preadipocytes. FIG. 16A: GTT was performed on fasting Veh (open circles) and EREG-treated (closed circles) ob/ob (N=5/group, Study 4) mice (12 hrs) using a single 25% dextrose injection (0.004 mL/g body weight). Asterisks indicate significant differences between Veh- and EREG-treated groups. FIG. 16B: ITT was performed in the same mice groups. […]: Fluorescently-labelled (FD) glucose uptake was measured in mouse […] preadipocytes. FIG. 16C: Preadipocytes were treated with vehicle, insulin (ins), EREG and forskolin for 30 mins. […] Asterisks represent significant differences compared to vehicle (P<0.05). FIG. 16D: Dose dependent increase in FD-glucose uptake by 3T3-L1 preadipocytes stimulated with different EREG concentrations. Data are shown as a percent of Veh-treated control. FIGS. 16E to 16G: FD-glucose uptake was measured in omental iAb preadipocytes isolated from lean (FIG. 16E) and obese insulin-resistant (FIG. 16F, 16G) patients in the presence of insulin, EREG, and forskolin. […] Omental preadipocytes from obese insulin resistant […] (FIG. 16G) and […] (FIG. 16K) were also stimulated with and without EREG in presence and absence of EGFR and MAPK inhibitors for 30 mins. Data were calculated as a percent to non-stimulated control (Veh, 100%, dash line) and shown as a mean±SD. Asterisks represent significant differences compared to vehicle (P<0.05), Mann-Whitney U test. FIG. 16H: FD-glucose uptake was measured in mouse 3T3-L1 preadipocytes with or without EREG (50 ng/mL) and inhibitors of MAPK and PI3K (MAPK-I, 10 uM, and PI3K-I, 200 nM). Data (mean±SD) are shown as percent to control (Veh 100%). […] P<0.05 indicate significant differences between EREG-treated and PI3K-I/EREG treated groups. Asterisks indicate significant differences between vehicle control and treatments with inhibitors. FIG. 16I: Phosphorylated (p-Akt) and non-phosphorylated (total) Akt protein levels were measured in mouse 3T3-L1 preadipocytes stimulated with or without EREG (50 ng/ml), PI3K-I (200 nM) for 20 mins by western blot and quantified by ImageJ Software. […] Asterisks represent significant differences compared to vehicle (P<0.05). FIG. 16J: Plasma insulin levels in fasting Veh and EREG-treated ob/ob mice measured by ELISA. FIG. 16L: Phosphorylated Akt protein levels were measured by western blot in human preadipocytes from an obese person stimulated with or without EREG (50 ng/ml) and PI3K-I (200 nM) for 20 mins. […] Asterisks represent significant differences compared to vehicle (P<0.05). Mann-Whitney U test. FIG. 16M: Schematic depicting two different pathways involved in EREG-mediated induction of thermogenesis and glucose uptake. EREG acts via MAPK to induce leptin secretion and also stimulates hormone sensitive lipase (HSL). HSL hydrolyzes free fatty acids activating PPARα activation. EGF, EGFR inhibition, or MAPK inhibition streamlines EREG-dependent PI3K/Akt activation that increase glucose uptake.
Human stromal vascular fraction (SVF) was isolated from iAb (omental) fat of lean and obese men and women as described before and maintained in preadipocyte culture media (Lonza, Allendale, NJ). Differentiation was carried out for 9-10 days using preadipocyte culture media supplemented with insulin, dexamethasone, IBMX and indomethacin (Lonza, Allendale, NJ).
Glucose uptake assay was performed using glucose uptake cell-based assay kit (Cayman Chemical, Ann Arbor, MI). 3T3-L1 or human preadipocytes were cultured at a density of 5×10^4 per well into a 96-well plate (n=7) in high glucose media and grown overnight. Old cell culture medium was removed the next day and washed with PBS to remove residual glucose. Supplied 2-deoxy-2-[(7-nitro-2,1,3-benzoxadiazol-4-yl)amino]-D-glucose) (2-NBDG) was diluted to 150 μg/mL in DMEM medium without glucose, phenol red, L-glutamine, sodium pyruvate, and HEPES (Life technologies, Grand Island, New York). […]

[1] = insulin resistant patient, EREG with EGFR inhibitor, 30 mins

EREG: Epiregulin, member of the epidermal growth factor family; recombinant mouse or human protein
glucose uptake in preadipocytes from lean insulin-sensitive patients: induced similar glucose uptake
glucose uptake in preadipocytes from an insulin resistant patient: dose-dependent fashion
glucose uptake with inhibition of EGFR, compared to insulin response (100%) [1]: 212%
glucose uptake with inhibition of EGFR, compared to non-treated preadipocytes (100%) [1]: 268%

insulin: insulin (bovine or human)
glucose uptake in preadipocytes from lean insulin-sensitive patients: induced similar glucose uptake
glucose uptake in preadipocytes from an insulin resistant patient: not significant
